From PubChem BioAssay (NCI)
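All cell lines were grown in 96-well plates and treated with compound for 48 hours. Definition used: TGI = concentration required for complete inhibition of growth.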

Key:
Experiment in all cases: NCI tumour cell line growth inhibition, 48 h
SR leukemia = system: SR leukemia
OVCAR-4 ovarian = system: OVCAR-4 ovarian
RPMI-8226 leukemia = system: RPMI-8226 leukemia
CAKI-1 renal = system: CAKI-1 renal
MDA-N = system: MDA-N
DU-145 prostate = system: DU-145 prostate
HS 578T breast = system: HS 578T breast
NCI-H522 lung = system: NCI-H522 lung
M14 melanoma = system: M14 melanoma
SNB-19 CNS = system: SNB-19 CNS
UACC-62 melanoma = system: UACC-62 melanoma
IGROV1 ovarian = system: IGROV1 ovarian
UO-31 renal = system: UO-31 renal
HT29 colon = system: HT29 colon
HOP-92 NSCLC = system: HOP-92 NSCLC
NCI-H226 lung = system: NCI-H226 lung
T-47D breast = system: T-47D breast
PC-3 prostate = system: PC-3 prostate
SK-OV-3 ovarian = system: SK-OV-3 ovarian
CCRF-CEM leukemia = system: CCRF-CEM leukemia
K-562 leukemia = system: K-562 leukemia
UACC-257 melanoma = system: UACC-257 melanoma
COLO 205 colon = system: COLO 205 colon
SF-268 CNS = system: SF-268 CNS
HCT-15 colon = system: HCT-15 colon
SK-MEL-2 melanoma = system: SK-MEL-2 melanoma
SF-295 CNS = system: SF-295 CNS
SK-MEL-5 melanoma = system: SK-MEL-5 melanoma
HCT-116 colon = system: HCT-116 colon
NCI-H460 lung = system: NCI-H460 lung
MALME-3M melanoma = system: MALME-3M melanoma
KM12 colon = system: KM12 colon
SN12C renal = system: SN12C renal
SW-620 colon = system: SW-620 colon
EKVX NSCLC = system: EKVX NSCLC
ACHN renal = system: ACHN renal
A498 renal = system: A498 renal
U251 CNS = system: U251 CNS
OVCAR-8 ovarian = system: OVCAR-8 ovarian
786-0 renal = system: 786-0 renal
OVCAR-5 ovarian = system: OVCAR-5 ovarian
BT-549 breast = system: BT-549 breast
RXF 393 renal = system: RXF 393 renal
HL-60(TB) leukemia = system: HL-60(TB) leukemia
MOLT-4 leukemia = system: MOLT-4 leukemia
NCI/ADR-RES ovarian = system: NCI/ADR-RES ovarian
NCI-H23 lung = system: NCI-H23 lung
MDA-MB-435 = system: MDA-MB-435
MDA-MB-231 breast = system: MDA-MB-231 breast
TK-10 renal = system: TK-10 renal
SK-MEL-28 melanoma = system: SK-MEL-28 melanoma
A549 NSCLC = system: A549 NSCLC
OVCAR-3 ovarian = system: OVCAR-3 ovarian
SNB-75 CNS = system: SNB-75 CNS
HOP-62 NSCLC = system: HOP-62 NSCLC
HCC-2998 colon = system: HCC-2998 colon
MCF7 breast = system: MCF7 breast
LOX IMVI melanoma = system: LOX IMVI melanoma

Measured: TGI

O=c1[nH]c(-n2[nH]c3c(c2=O)CCCC3)nc(O)c1-c1ccccc1
not listed: A549 NSCLC | OVCAR-3 ovarian | SNB-75 CNS | HOP-62 NSCLC | HCC-2998 colon | MCF7 breast | LOX IMVI melanoma
> 100 µM: all other assays above

CC(=O)OCC(OC(C)=O)C(OC(C)=O)C(OC(C)=O)C(C=NN(C(C)=O)S(=O)(=O)c1ccc(/C=C2\NC(=O)NC2=O)cc1)OC(C)=O (stereo not given)
not listed: SR leukemia | HOP-92 NSCLC | HL-60(TB) leukemia | SK-MEL-28 melanoma
> 100 µM: all other assays above
